Measured values from patent US11932607B1, “4-(2,4,5-tris(4-chlorophenyl)-1H-imidazol-1-yl)benzoic acid as an antimicrobial compound” (KING FAISAL UNIVERSITY, priority 2023, dated 2024).

Key:
Format in all cases: cell-based
Bacillus cereus = assay: Agar plate disc-diffusion, antibacterial activity (inhibition zone); settings: Gram positive, DMSO control zone subtracted
Protocol: (§1) The agar plate disc-diffusion method was applied. […] The discs were then placed onto the surface of agar plates (nutrient agar for bacteria and Sabouraud's dextrose agar for fungi) seeded with the test organism. Each plate contained 15 mL of the agar medium, previously seeded with 0.2 mL of the broth culture of each organism pregrown for 18 hours. The plates were incubated at 37° C. for 48 hours, and 72 hours for fungi. The inhibition zones was measured in mm. Discs impregnated with DMSO were used as a control, and its inhibition zone was subtracted from the tested compound actual inhibition zone.

Pseudomonas aeruginosa = assay: as above; settings: Gram negative, DMSO control zone subtracted
Protocol: as §1

Escherichia coli = assay: as above; settings: Gram negative, DMSO control zone subtracted
Protocol: as §1

Staphylococcus aureus = assay: as above; settings: Gram positive, DMSO control zone subtracted
Protocol: as §1

[1] = tested on: Chrysosporium keratinophilum; assay: Agar plate disc-diffusion, antifungal activity (inhibition zone); settings: fungal, DMSO control zone subtracted
Protocol: as §1

Aspergillus flavus = assay: as above; settings: fungal, DMSO control zone subtracted
Protocol: as §1

[2] = A = concentration of comp. = 10,000 μL
[3] = B = concentration of comp. = 30,000 μL
[4] = C = concentration of comp. = 50,000 μL

Question: Which “inhibition zone, Bacillus Cereus, A” value (Bacillus cereus; [2]) does the source give for `O=C(O)c1ccc(-n2c(-c3ccc(Cl)cc3)nc(-c3ccc(Cl)cc3)c2-c2ccc(Cl)cc2)cc1` [V, 4-(2,4,5-tris(4-chlorophenyl)-1H-imidazol-1-yl)benzoic acid] here?
Answer: 24 mm

Question: And the “inhibition zone, Bacillus Cereus, B” value (Bacillus cereus; [3])?
Answer: 27 mm

Question: What about the “inhibition zone, Bacillus Cereus, C” value (Bacillus cereus; [4]) of the same compound?
Answer: 35 mm

Question: What about the “inhibition zone, Pseudomonas aeruginosa, A” value (Pseudomonas aeruginosa; [2]) of the same compound?
Answer: 24 mm

Question: What about the “inhibition zone, Pseudomonas aeruginosa, B” value (Pseudomonas aeruginosa; [3]) of the same compound?
Answer: 27 mm

Question: And the “inhibition zone, Pseudomonas aeruginosa, C” value (Pseudomonas aeruginosa; [4])?
Answer: 32 mm

Question: What about the “inhibition zone, Escherichia coli, A” value (Escherichia coli; [2]) of the same compound?
Answer: 25 mm

Question: What about the “inhibition zone, Escherichia coli, B” value (Escherichia coli; [3]) of the same compound?
Answer: 28 mm

Question: What about the “inhibition zone, Escherichia coli, C” value (Escherichia coli; [4]) of the same compound?
Answer: 39 mm

Question: And the “inhibition zone, Staphylococcus aureus, A” value (Staphylococcus aureus; [2])?
Answer: 15 mm

Question: And the “inhibition zone, Staphylococcus aureus, B” value (Staphylococcus aureus; [3])?
Answer: 22 mm

Question: What about the “inhibition zone, Staphylococcus aureus, C” value (Staphylococcus aureus; [4]) of the same compound?
Answer: 26 mm

Question: And the “inhibition zone, Chrysosporium keratinophilum, A” value [1, 2]?
Answer: 25 mm

Question: And the “inhibition zone, Chrysosporium keratinophilum, B” value [1, 3]?
Answer: 28 mm

Question: What about the “inhibition zone, Chrysosporium keratinophilum, C” value [1, 4] of the same compound?
Answer: 48 mm

Question: What about the “inhibition zone, Aspergillus flavus, A” value (Aspergillus flavus; [2]) of the same compound?
Answer: 21 mm

Question: What about the “inhibition zone, Aspergillus flavus, B” value (Aspergillus flavus; [3]) of the same compound?
Answer: 24 mm

Question: And the “inhibition zone, Aspergillus flavus, C” value (Aspergillus flavus; [4])?
Answer: 35 mm
